ChEMBL document CHEMBL4507320, “Data for DCP probe NVS-MALT1” (2021)

Tests used:
[1] = tested on: Tyrosine-protein kinase ABL1 (Homo sapiens), P00519 [F317I]; conditions: Compound concentration 1000.0 nM
[2] = tested on: Tyrosine-protein kinase ABL1 (Homo sapiens), P00519 [M351T]; conditions: Compound concentration 1000.0 nM
[3] = biological target: Activin receptor type-2B (Homo sapiens) (UniProt Q13705); conditions: Compound concentration 1000.0 nM
[4] = biological target: 5'-AMP-activated protein kinase catalytic subunit alpha-2 (Homo sapiens) (UniProt P54646); conditions: Compound concentration 1000.0 nM
[5] = biological target: Aurora kinase A (Homo sapiens) (UniProt O14965); conditions: Compound concentration 1000.0 nM
[6] = biological target: Calcium/calmodulin-dependent protein kinase type II subunit gamma (Homo sapiens) (UniProt Q13555); conditions: Compound concentration 1000.0 nM
[7] = biological target: Cyclin-dependent kinase-like 2 (Homo sapiens) (UniProt Q92772); conditions: Compound concentration 1000.0 nM
[8] = biological target: Serine/threonine-protein kinase Chk1 (Homo sapiens) (UniProt O14757); conditions: Compound concentration 1000.0 nM
[9] = biological target: Dual specificity protein kinase CLK1 (Homo sapiens) (UniProt P49759); conditions: Compound concentration 1000.0 nM
[10] = biological target: Casein kinase I isoform gamma-1 (Homo sapiens) (UniProt Q9HCP0); conditions: Compound concentration 1000.0 nM
[11] = biological target: Epidermal growth factor receptor (Homo sapiens) (UniProt P00533); conditions: Compound concentration 1000.0 nM
[12] = tested on: Epidermal growth factor receptor (Homo sapiens), P00533 [L858R,T790M]; conditions: Compound concentration 1000.0 nM
[13] = biological target: Receptor tyrosine-protein kinase erbB-4 (Homo sapiens) (UniProt Q15303); conditions: Compound concentration 1000.0 nM
[14] = biological target: Serine/threonine-protein kinase/endoribonuclease IRE1 (Homo sapiens) (UniProt O75460); conditions: Compound concentration 1000.0 nM
[15] = biological target: Tyrosine-protein kinase FRK (Homo sapiens) (UniProt P42685); conditions: Compound concentration 1000.0 nM
[16] = biological target: Serine/threonine-protein kinase haspin (Homo sapiens) (UniProt Q8TF76); conditions: Compound concentration 1000.0 nM
[17] = biological target: Insulin-like growth factor 1 receptor (Homo sapiens) (UniProt P08069); conditions: Compound concentration 1000.0 nM
[18] = biological target: Mitogen-activated protein kinase 9 (Homo sapiens) (UniProt P45984); conditions: Compound concentration 1000.0 nM
[19] = biological target: Mitogen-activated protein kinase 10 (Homo sapiens) (UniProt P53779); conditions: Compound concentration 1000.0 nM
[20] = tested on: Mast/stem cell growth factor receptor Kit (Homo sapiens), P10721 [A829P]; conditions: Compound concentration 1000.0 nM
[21] = biological target: Mast/stem cell growth factor receptor Kit (Homo sapiens) (UniProt P10721); conditions: Compound concentration 1000.0 nM
[22] = biological target: Serine/threonine-protein kinase MAK (Homo sapiens) (UniProt P20794); conditions: Compound concentration 1000.0 nM
[23] = biological target: Serine/threonine-protein kinase MARK1 (Homo sapiens) (UniProt Q9P0L2); conditions: Compound concentration 1000.0 nM
[24] = biological target: Serine/threonine-protein kinase MARK2 (Homo sapiens) (UniProt Q7KZI7); conditions: Compound concentration 1000.0 nM
[25] = biological target: MAP kinase-interacting serine/threonine-protein kinase 1 (Homo sapiens) (UniProt Q9BUB5); conditions: Compound concentration 1000.0 nM
[26] = biological target: Myosin light chain kinase (Homo sapiens) (UniProt Q32MK0); conditions: Compound concentration 1000.0 nM
[27] = biological target: Serine/threonine-protein kinase MRCK alpha (Homo sapiens) (UniProt Q5VT25); conditions: Compound concentration 1000.0 nM
[28] = biological target: Serine/threonine-protein kinase Nek5 (Homo sapiens) (UniProt Q6P3R8); conditions: Compound concentration 1000.0 nM
[29] = biological target: Serine/threonine-protein kinase Nek6 (Homo sapiens) (UniProt Q9HC98); conditions: Compound concentration 1000.0 nM
[30] = biological target: Serine/threonine-protein kinase NLK (Homo sapiens) (UniProt Q9UBE8); conditions: Compound concentration 1000.0 nM
[31] = biological target: Serine/threonine-protein kinase PAK 3 (Homo sapiens) (UniProt O75914); conditions: Compound concentration 1000.0 nM
[32] = biological target: Phosphatidylinositol 4-phosphate 3-kinase C2 domain-containing subunit beta (Homo sapiens) (UniProt O00750); conditions: Compound concentration 1000.0 nM
[33] = biological target: Phosphatidylinositol 4,5-bisphosphate 3-kinase catalytic subunit delta isoform (Homo sapiens) (UniProt O00329); conditions: Compound concentration 1000.0 nM
[34] = biological target: Serine/threonine-protein kinase PLK1 (Homo sapiens) (UniProt P53350); conditions: Compound concentration 1000.0 nM
[35] = biological target: Serine/threonine-protein kinase RIO3 (Homo sapiens) (UniProt O14730); conditions: Compound concentration 1000.0 nM
[36] = biological target: Ribosomal protein S6 kinase alpha-3 (Homo sapiens) (UniProt P51812); conditions: Compound concentration 1000.0 nM
[37] = biological target: Serine/threonine-protein kinase Sgk2 (Homo sapiens) (UniProt Q9HBY8); conditions: Compound concentration 1000.0 nM
[38] = biological target: Serine/threonine-protein kinase 35 (Homo sapiens) (UniProt Q8TDR2); conditions: Compound concentration 1000.0 nM
[39] = biological target: Dual specificity testis-specific protein kinase 1 (Homo sapiens) (UniProt Q15569); conditions: Compound concentration 1000.0 nM
[40] = biological target: Testis-specific serine/threonine-protein kinase 1 (Homo sapiens) (UniProt Q9BXA7); conditions: Compound concentration 1000.0 nM
[41] = biological target: Dual specificity protein kinase TTK (Homo sapiens) (UniProt P33981); conditions: Compound concentration 1000.0 nM
[42] = biological target: GABA-A receptor; anion channel (Rattus norvegicus) (UniProt O09028+P15431+P18506+P18508+P19969+P20236+P23574+P23576+P28471+P28473+P30191+P62813+P63079+P63138+Q91ZM7+Q9ES14); conditions: Compound concentration 10.0 uM
[43] = biological target: Alpha-1B adrenergic receptor (Homo sapiens) (UniProt P35368); conditions: Compound concentration 10.0 uM

Chain of 5'-AMP-activated protein kinase catalytic subunit alpha-2 (Homo sapiens) (P54646 whole entry, looked up): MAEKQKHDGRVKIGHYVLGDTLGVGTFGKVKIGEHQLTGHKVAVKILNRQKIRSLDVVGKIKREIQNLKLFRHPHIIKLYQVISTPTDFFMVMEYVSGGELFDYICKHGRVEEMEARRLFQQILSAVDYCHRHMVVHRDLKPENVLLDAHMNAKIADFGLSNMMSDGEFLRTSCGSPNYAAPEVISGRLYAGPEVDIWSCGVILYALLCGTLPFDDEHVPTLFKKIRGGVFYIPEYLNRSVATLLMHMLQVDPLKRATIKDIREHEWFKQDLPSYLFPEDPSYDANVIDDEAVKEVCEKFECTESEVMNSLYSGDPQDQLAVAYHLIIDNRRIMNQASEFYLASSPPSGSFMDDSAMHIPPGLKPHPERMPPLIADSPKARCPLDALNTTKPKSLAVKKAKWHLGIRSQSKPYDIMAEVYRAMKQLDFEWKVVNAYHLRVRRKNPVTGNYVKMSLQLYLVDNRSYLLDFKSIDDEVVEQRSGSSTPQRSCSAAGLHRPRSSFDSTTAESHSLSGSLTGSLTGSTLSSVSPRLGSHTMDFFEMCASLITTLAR
Chain of Testis-specific serine/threonine-protein kinase 1 (Homo sapiens) (Q9BXA7 whole entry): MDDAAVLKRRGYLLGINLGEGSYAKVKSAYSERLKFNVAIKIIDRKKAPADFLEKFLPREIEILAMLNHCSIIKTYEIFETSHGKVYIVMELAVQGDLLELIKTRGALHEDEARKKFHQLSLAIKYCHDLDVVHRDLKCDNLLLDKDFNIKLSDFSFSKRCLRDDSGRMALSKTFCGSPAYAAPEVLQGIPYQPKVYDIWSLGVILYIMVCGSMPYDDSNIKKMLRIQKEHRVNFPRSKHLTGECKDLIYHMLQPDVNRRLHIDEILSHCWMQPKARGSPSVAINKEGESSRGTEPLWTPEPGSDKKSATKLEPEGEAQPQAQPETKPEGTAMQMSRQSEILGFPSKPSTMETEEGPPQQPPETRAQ
Chain of Cyclin-dependent kinase-like 2 (Homo sapiens) (Q92772 whole entry): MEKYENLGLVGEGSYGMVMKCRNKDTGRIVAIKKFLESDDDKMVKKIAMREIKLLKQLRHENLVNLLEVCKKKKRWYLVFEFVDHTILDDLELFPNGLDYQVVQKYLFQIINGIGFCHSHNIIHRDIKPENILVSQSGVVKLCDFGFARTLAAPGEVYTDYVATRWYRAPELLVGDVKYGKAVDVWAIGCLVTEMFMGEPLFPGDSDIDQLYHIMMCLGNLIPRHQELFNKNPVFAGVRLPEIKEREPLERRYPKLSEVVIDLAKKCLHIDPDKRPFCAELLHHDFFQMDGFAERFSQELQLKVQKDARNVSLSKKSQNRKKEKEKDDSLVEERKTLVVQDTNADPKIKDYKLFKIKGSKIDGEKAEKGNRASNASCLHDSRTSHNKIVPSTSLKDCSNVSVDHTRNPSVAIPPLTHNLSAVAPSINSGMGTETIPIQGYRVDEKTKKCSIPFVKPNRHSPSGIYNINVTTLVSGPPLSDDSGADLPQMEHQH
Chain of Serine/threonine-protein kinase 35 (Homo sapiens) (Q8TDR2 whole entry): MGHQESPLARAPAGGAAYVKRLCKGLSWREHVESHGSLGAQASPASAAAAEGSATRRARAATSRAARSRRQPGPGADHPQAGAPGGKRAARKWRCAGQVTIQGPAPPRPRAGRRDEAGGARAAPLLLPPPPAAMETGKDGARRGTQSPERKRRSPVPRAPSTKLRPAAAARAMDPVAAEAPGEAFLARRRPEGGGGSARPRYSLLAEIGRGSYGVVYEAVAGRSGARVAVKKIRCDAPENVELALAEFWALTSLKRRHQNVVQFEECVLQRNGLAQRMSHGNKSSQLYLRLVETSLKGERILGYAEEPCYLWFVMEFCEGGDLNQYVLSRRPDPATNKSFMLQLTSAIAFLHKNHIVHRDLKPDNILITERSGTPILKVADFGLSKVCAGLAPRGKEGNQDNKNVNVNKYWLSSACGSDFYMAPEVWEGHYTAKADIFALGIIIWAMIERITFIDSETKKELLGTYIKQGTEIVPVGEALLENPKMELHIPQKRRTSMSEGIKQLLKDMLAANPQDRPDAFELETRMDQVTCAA
Chain of Serine/threonine-protein kinase NLK (Homo sapiens) (Q9UBE8 whole entry): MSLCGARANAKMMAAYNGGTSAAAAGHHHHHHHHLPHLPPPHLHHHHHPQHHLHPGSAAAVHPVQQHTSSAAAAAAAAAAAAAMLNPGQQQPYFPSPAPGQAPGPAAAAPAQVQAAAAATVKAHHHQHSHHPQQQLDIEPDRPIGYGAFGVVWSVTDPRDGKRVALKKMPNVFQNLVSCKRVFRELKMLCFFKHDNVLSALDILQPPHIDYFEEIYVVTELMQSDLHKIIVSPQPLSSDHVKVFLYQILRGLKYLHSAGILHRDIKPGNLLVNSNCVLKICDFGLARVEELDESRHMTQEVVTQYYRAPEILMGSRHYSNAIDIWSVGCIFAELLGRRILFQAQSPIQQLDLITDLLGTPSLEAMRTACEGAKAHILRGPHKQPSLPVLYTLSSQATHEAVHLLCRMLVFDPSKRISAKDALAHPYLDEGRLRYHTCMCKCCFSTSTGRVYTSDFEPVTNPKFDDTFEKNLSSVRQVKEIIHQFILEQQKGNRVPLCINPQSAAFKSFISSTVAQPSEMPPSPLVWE
Chain of Dual specificity protein kinase TTK (Homo sapiens) (P33981 whole entry): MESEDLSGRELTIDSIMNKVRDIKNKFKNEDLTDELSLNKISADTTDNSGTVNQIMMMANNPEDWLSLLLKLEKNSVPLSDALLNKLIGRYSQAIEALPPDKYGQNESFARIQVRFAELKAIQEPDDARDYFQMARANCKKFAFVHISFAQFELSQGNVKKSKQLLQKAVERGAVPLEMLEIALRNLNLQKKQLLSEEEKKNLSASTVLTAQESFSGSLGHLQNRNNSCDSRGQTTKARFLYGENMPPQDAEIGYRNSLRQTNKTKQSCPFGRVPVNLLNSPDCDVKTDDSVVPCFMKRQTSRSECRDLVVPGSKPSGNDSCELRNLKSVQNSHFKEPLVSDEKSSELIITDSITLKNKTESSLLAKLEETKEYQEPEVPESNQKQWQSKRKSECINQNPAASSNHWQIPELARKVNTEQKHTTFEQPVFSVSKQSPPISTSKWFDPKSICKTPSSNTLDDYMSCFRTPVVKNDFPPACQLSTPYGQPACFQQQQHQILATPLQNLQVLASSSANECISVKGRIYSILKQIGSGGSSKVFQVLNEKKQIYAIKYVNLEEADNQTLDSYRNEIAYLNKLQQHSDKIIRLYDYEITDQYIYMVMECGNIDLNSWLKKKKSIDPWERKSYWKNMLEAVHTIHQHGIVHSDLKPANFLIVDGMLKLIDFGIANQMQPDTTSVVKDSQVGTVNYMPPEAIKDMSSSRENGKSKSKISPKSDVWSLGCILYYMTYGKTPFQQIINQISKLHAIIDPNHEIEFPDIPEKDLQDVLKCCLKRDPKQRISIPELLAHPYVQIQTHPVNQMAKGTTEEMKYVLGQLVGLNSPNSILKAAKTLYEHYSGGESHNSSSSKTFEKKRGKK
Chain of Calcium/calmodulin-dependent protein kinase type II subunit gamma (Homo sapiens) (Q13555 whole entry): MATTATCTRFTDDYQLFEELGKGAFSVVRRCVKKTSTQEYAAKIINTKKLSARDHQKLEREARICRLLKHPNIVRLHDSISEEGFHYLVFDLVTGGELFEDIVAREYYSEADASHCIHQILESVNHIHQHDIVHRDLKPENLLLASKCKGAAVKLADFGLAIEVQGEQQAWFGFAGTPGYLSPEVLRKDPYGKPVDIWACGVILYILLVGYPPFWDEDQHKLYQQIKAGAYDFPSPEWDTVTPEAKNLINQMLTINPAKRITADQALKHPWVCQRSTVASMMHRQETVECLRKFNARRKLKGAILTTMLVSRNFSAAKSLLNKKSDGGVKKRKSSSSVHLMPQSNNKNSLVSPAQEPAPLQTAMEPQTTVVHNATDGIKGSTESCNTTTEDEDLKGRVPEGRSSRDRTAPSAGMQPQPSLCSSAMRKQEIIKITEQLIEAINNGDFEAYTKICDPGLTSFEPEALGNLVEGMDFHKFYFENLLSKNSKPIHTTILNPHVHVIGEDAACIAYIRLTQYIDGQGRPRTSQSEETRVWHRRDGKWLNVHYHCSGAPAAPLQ
Chain of Myosin light chain kinase (Homo sapiens) (Q32MK0 whole entry): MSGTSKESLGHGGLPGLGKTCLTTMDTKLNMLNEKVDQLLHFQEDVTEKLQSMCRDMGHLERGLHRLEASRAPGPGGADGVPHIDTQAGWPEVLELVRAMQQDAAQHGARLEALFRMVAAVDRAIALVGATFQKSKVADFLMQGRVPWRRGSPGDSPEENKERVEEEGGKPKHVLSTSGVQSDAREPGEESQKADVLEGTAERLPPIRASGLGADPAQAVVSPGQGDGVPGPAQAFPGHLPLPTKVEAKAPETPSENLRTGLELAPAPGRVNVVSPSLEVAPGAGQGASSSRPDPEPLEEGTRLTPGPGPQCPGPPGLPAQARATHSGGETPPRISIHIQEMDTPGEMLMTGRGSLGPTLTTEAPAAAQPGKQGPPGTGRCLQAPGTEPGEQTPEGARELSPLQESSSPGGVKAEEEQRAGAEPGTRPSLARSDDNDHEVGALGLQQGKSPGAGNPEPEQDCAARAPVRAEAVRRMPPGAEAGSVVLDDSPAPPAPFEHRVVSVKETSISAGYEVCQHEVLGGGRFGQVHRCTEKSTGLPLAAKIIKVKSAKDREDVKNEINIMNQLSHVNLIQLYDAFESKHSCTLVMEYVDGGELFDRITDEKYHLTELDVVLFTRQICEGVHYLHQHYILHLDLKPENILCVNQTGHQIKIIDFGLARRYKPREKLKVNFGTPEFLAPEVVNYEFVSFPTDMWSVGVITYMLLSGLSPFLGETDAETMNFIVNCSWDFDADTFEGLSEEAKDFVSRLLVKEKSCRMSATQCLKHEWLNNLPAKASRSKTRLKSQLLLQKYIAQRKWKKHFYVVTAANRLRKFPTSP
Chain of Serine/threonine-protein kinase Nek6 (Homo sapiens) (Q9HC98 whole entry): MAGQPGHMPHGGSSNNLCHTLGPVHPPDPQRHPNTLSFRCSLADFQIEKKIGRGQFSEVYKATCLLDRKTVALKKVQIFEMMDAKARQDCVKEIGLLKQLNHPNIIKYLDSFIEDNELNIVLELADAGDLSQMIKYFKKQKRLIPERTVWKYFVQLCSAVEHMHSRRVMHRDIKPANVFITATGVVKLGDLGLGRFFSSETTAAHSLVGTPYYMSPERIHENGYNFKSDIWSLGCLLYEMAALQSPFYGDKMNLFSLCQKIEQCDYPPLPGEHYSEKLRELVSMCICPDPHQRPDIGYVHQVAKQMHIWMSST

CO[C@@H](C)c1c(Nc2ccc([C@H](N(C)C(=O)C3CCS(=O)(=O)CC3)C(F)(F)F)cc2)cnc2cc(Cl)nn12 [NVS-MALT1]
inactive: residual activity [1] 100% | residual activity [2] 65% | residual activity [3] 66% | residual activity [4] 100% | residual activity [5] 100% | residual activity [6] 77% | residual activity [7] 90% | residual activity [8] 91% | residual activity [9] 81% | residual activity [10] 100% | residual activity [11] 93% | residual activity [12] 80% | residual activity [13] 84% | residual activity [14] 91% | residual activity [15] 80% | residual activity [16] 100% | residual activity [17] 100% | residual activity [18] 92% | residual activity [19] 96% | residual activity [20] 100% | residual activity [21] 98% | residual activity [22] 100% | residual activity [23] 69% | residual activity [24] 100% | residual activity [25] 100% | residual activity [26] 84% | residual activity [27] 86% | residual activity [28] 84% | residual activity [29] 97% | residual activity [30] 83% | residual activity [31] 100% | residual activity [32] 97% | residual activity [33] 98% | residual activity [34] 77% | residual activity [35] 82% | residual activity [36] 100% | residual activity [37] 91% | residual activity [38] 80% | residual activity [39] 85% | residual activity [40] 100% | residual activity [41] 77% | inhibition [42] 27.9% | inhibition [43] 27.6%

CO[C@@H](C)c1c(Nc2ccc([C@@H](N(C)C(=O)C3CCS(=O)(=O)CC3)C(F)(F)F)cc2)cnc2cc(Cl)nn12 [NVS-MALT1-C]
inactive: residual activity [1] 100% | residual activity [2] 59% | residual activity [3] 100% | residual activity [4] 78% | residual activity [5] 100% | residual activity [6] 84% | residual activity [7] 88% | residual activity [8] 95% | residual activity [9] 82% | residual activity [10] 99% | residual activity [11] 95% | residual activity [12] 72% | residual activity [13] 77% | residual activity [14] 100% | residual activity [15] 91% | residual activity [16] 100% | residual activity [17] 97% | residual activity [18] 76% | residual activity [19] 78% | residual activity [20] 100% | residual activity [21] 85% | residual activity [22] 100% | residual activity [23] 81% | residual activity [24] 100% | residual activity [25] 100% | residual activity [26] 87% | residual activity [27] 94% | residual activity [28] 88% | residual activity [29] 100% | residual activity [30] 84% | residual activity [31] 100% | residual activity [32] 89% | residual activity [33] 87% | residual activity [34] 87% | residual activity [35] 90% | residual activity [36] 100% | residual activity [37] 99% | residual activity [38] 90% | residual activity [39] 83% | residual activity [40] 100% | residual activity [41] 100% | inhibition [42] 19.2% | inhibition [43] 5.97%
